Structures are written as SMILES. pIC50: −log10 of the molar value.

For one assay, the target named is T1, rat GnRH receptor (Rattus norvegicus, UniProt P30969).
T1 sequence (P30969 1-327): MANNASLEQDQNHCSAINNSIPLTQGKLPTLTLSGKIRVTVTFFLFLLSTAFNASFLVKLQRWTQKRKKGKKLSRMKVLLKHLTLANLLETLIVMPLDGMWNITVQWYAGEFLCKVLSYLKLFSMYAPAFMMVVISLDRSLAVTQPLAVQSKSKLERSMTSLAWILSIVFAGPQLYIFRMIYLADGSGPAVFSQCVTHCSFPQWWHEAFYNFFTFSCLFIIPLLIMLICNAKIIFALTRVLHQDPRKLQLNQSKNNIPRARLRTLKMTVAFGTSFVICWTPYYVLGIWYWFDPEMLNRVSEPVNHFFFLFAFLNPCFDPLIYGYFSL
Description: Radioligand binding, 125I-GnRH-A, rat pituitary membranes. Also noted: membranes were prepared from rat pituitary; from tissue; host or cells: rat pituitary. The following applies: read-out: rGnRH IC50. Here is the method:
All compounds were diluted in 1% DMSO (final assay concentration) in binding assay buffer. […] Reactions were terminated by rapid filtration onto 96-well Packard GF/C filters soaked in 0.1% polyethyleneimine. Filters were washed three times with PBS buffer, dried and counted on a Packard Topcount by liquid scintillation counting.
Assay conditions were identical for assessing compound activities at other species. […] IC50 values for control peptides and test compounds were calculated utilizing GraphPad Prism™ software.
The reaction mixture was vortexed and incubated for 1 min at room temperature. After one min, the mixture was vortexed and allowed to incubate for an additional minute. 2 ml of 0.5 M acetic acid/1% BSA was added to the reaction tube and the mixture was added to a C18 Sep-Pak cartridge. The cartridge was washed with subsequent washes of 5 ml H2O and 5 ml 0.5M acetic acid and then eluted with 5×1 ml of 60% CH3CN/40% 0.5M acetic acid. The eluate was diluted with 3× volume of HPLC buffer A (0.1% TFA in H2O) and loaded onto a C18 column. […] The radioactive fractions (750 ed/fraction) are collected into clean polypropylene tubes containing 100 μl of 10% BSA. Fractions were assessed for biological activity by radioligand binding.

The next assay addresses T2, human GnRH receptor (Homo sapiens, UniProt P30968).
T2 construct: expressed in transfected cells; host or cells: HEK 293 (hGnRH-R/293, from Dr. Stuart Sealfon)
T2 sequence (P30968 1-328): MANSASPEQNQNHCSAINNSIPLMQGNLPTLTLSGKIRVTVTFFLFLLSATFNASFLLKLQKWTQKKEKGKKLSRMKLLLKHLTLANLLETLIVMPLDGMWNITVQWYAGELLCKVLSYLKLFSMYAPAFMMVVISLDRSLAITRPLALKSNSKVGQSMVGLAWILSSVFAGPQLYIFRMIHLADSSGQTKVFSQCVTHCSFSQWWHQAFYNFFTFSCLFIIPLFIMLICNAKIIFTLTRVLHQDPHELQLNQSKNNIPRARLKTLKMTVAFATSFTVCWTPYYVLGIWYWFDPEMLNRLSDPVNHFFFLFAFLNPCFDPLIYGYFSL
The assay can be described thus: Radioligand binding, 125I-GnRH-A displacement, membranes of HEK 293 cells with human GnRH receptor. The settings on record: read-out: hGnRH IC50. Summed up: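 Bound tracer was separated by filtration through polyethyleneimine-soaked GF/C filters and counted by liquid scintillation. IC50 from curve fitting; other species were tested under the same conditions.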

In the case of `Cc1cc2c(cc1Cc1ccc(C(N)=O)o1)C(C)(C)CCC2(C)C` [AXC- 06675], the figures for the pIC50 on rat GnRH receptor and at human GnRH receptor were 5.55 and 5.70, respectively.
As for `Cc1cc2c(cc1Cc1ccc(C(=O)NCc3ccccc3-c3ccccc3)o1)C(C)(C)CCC2(C)C` [Compound 67], the pIC50 (as a rule, the negative decadic logarithm of the IC50, by convention in mol/L) on rat GnRH receptor is 5.94.
As to `Cc1cc2c(cc1Cc1ccc(C(=O)NCC3CCNCC3)o1)C(C)(C)CCC2(C)C` [Compound 76], the pIC50 is 5.28 on rat GnRH receptor and 6.06 on human GnRH receptor.
In the case of `Cc1ccc(C)c(Cc2ccc(C(=O)NCc3cnc(C)cn3)o2)c1` [Compound 77], the pIC50 at rat GnRH receptor was 5.07; on human GnRH receptor, less than 5.00.
As for `Cc1cc2c(cc1Cc1ccc(C(=O)Nc3cccnc3)o1)C(C)(C)CCC2(C)C` [Compound 78], the pIC50 on rat GnRH receptor is 5.89.
Consider `Cc1cc2c(cc1Cc1ccc(C(=O)NCc3ccc(-c4csnn4)cc3)o1)C(C)(C)CCC2(C)C` [Compound 79], for which the pIC50 at rat GnRH receptor is 6.43; at human GnRH receptor, 6.60.
For the compound `Cc1cnc(CNC(=O)c2ccc(Cc3c(C)cc(C)c(Br)c3C)o2)cn1` [Compound 80], the pIC50 at rat GnRH receptor was 5.25.
Consider `Cc1cc(C)c(Cc2ccc(C(=O)NCc3cnc(C)cn3)o2)c(C)c1` [Compound 81], for which, at rat GnRH receptor, the pIC50 is 5.09.
Consider `Cc1cc2c(cc1Cc1ccc(C(=O)NC3CCNC3)o1)C(C)(C)CCC2(C)C` (stereo not shown) [Compound 82], for which the pIC50 on rat GnRH receptor was 5.04.
For `Cc1cc2c(cc1Cc1ccc(C(=O)NCCCN3CCOCC3)o1)C(C)(C)CCC2(C)C` [Compound 83], the pIC50 was 5.76 at rat GnRH receptor and 6.21 on human GnRH receptor.
For the compound `COc1cc(C)c(Cc2ccc(C(=O)NCc3cnc(C)cn3)o2)cc1OC` [Compound 84], the pIC50 on rat GnRH receptor was 6.11; on human GnRH receptor, 5.10.
As to `Cc1cc2c(cc1Cc1ccc(C(=O)NC[C@H]3CC[C@H](c4nc5ccccc5[nH]4)CC3)o1)C(C)(C)CCC2(C)C` [Compound 85], the pIC50 at rat GnRH receptor is less than 5.00.
Turning to `Cc1cc2c(cc1Cc1ccc(C(=O)N3CCC(CNc4nccc(NCC5CCCO5)n4)CC3)o1)C(C)(C)CCC2(C)C` (stereo not shown) [Compound 86.5], the values for the pIC50 at rat GnRH receptor and on human GnRH receptor were 5.69 and 5.59, respectively.
Take `CCc1cccc(CC)c1NC(=O)c1ccc(Cc2cc3c(cc2C)C(C)(C)CCC3(C)C)o1` [Compound 86]: the results for the pIC50 at rat GnRH receptor and on human GnRH receptor were 6.29 and 5.10, respectively.
For `Cc1cc2c(cc1Cc1ccc(C(=O)NCC3CCN(C(=O)OC(C)(C)C)CC3)o1)C(C)(C)CCC2(C)C` [Compound 87], the figures for the pIC50 at rat GnRH receptor and at human GnRH receptor were 5.48 and 6.57, respectively.
Consider `Cc1cc2c(cc1Cc1ccc(C(=O)NC3CCN(C(=O)OC(C)(C)C)C3)o1)C(C)(C)CCC2(C)C` (stereo not shown) [Compound 88], for which the pIC50 at rat GnRH receptor was 5.63.
`Cc1cc2c(cc1Cc1ccc(C(=O)NCC3CCC(CNC(=O)C(F)(F)F)CC3)o1)C(C)(C)CCC2(C)C` (stereo not shown) [Compound 89]: the pIC50 is 5.56 at rat GnRH receptor and 6.60 at human GnRH receptor.
With `Cc1cc2c(cc1Cc1ccc(C(=O)NCC3CCC(CNCc4c(C)noc4C)CC3)o1)C(C)(C)CCC2(C)C` (stereo not shown) [Compound 90], the values for the pIC50 on rat GnRH receptor and at human GnRH receptor were 5.90 and 6.25, respectively.
The matching figures for `Cc1cc2c(cc1Cc1ccc(C(=O)NCC3CCC(CNc4nccc(Cl)n4)CC3)o1)C(C)(C)CCC2(C)C` (stereo not shown) [Compound 93]: 5.26 and 5.10.
Take `Cc1cc2c(cc1Cc1ccc(C(=O)N3CCC(Nc4nccc(NCC5CCCO5)n4)CC3)o1)C(C)(C)CCC2(C)C` (stereo not shown) [Compound 94.2]: the negative logarithm of the IC50 (pIC50) is 5.80 on rat GnRH receptor and 5.52 at human GnRH receptor.
`Cc1cc2c(cc1Cc1ccc(C(=O)N3CCC(Nc4ccnc(NCC5CCCO5)n4)C3)o1)C(C)(C)CCC2(C)C` (stereo not shown) [Compound 94.5]: the pIC50 at rat GnRH receptor is 5.32.
For the compound `Cc1cc(C)nc(NS(=O)(=O)c2ccc(NC(=O)c3ccc(Cc4cc5c(cc4C)C(C)(C)CCC5(C)C)o3)cc2)n1` [Compound 97], the pIC50 at rat GnRH receptor and on human GnRH receptor was 5.77 each time.
Turning to `Cc1cc2c(cc1Cc1ccc(C(=O)NCC3CCCN(C(=O)OC(C)(C)C)C3)o1)C(C)(C)CCC2(C)C` (stereo not shown) [Compound 100], the pIC50 is 5.22 at rat GnRH receptor and 6.23 on human GnRH receptor.
Take `Cc1cc2c(cc1Cc1ccc(C(=O)Nc3ccc(NC(=O)OC(C)(C)C)cc3)o1)C(C)(C)CCC2(C)C` [Compound 101]: the pIC50 at rat GnRH receptor and at human GnRH receptor was less than 5.00 each time.
For the compound `Cc1cc2c(cc1Cc1ccc(C(=O)Nc3ccc(C(N)=O)cc3)o1)C(C)(C)CCC2(C)C` [Compound 102], the pIC50 on rat GnRH receptor is 6.01; at human GnRH receptor, 5.93.
With `Cc1cc2c(cc1Cc1ccc(C(=O)NCC3CCN(c4ccnc(Cl)n4)CC3)o1)C(C)(C)CCC2(C)C` [Compound 103], the pIC50 is 5.46 at rat GnRH receptor and 6.44 at human GnRH receptor.
Take `Cc1cc2c(cc1Cc1ccc(C(=O)NCc3ccc(CNC(=O)C(F)(F)F)cc3)o1)C(C)(C)CCC2(C)C` [Compound 104]: the pIC50 at rat GnRH receptor was 5.90.
As to `Cc1cc2c(cc1Cc1ccc(C(=O)NCc3cccc(CNc4ncccn4)c3)o1)C(C)(C)CCC2(C)C` [Compound 106], the pIC50 on rat GnRH receptor is 6.29; on human GnRH receptor, 5.70.
On to `Cc1cc2c(cc1Cc1ccc(C(=O)Nc3ccc(S(=O)(=O)Nc4ccc(Cl)nn4)cc3)o1)C(C)(C)CCC2(C)C` [Compound 107], for which the pIC50 on rat GnRH receptor and on human GnRH receptor was less than 5.00 each time.
For the compound `Cc1cc2c(cc1Cc1ccc(C(=O)Nc3ccc(C(N)=O)cc3)o1)C(C)(C)CCC2(C)C` [Compound 108], the pIC50 at rat GnRH receptor is 5.56.
As to `Cc1cc2c(cc1Cc1ccc(C(=O)NC3CCC(NC(=O)C(F)(F)F)CC3)o1)C(C)(C)CCC2(C)C` (stereo not shown) [Compound 110], the pIC50 on rat GnRH receptor is less than 5.00.
As to `Cc1cc2c(cc1Cc1ccc(C(=O)NCC3CCC(CNc4ncccn4)CC3)o1)C(C)(C)CCC2(C)C` (stereo not shown) [Compound 111], the pIC50 at rat GnRH receptor was 5.76; on human GnRH receptor, 6.20.
Consider `Cc1cc2c(cc1Cc1ccc(C(=O)NC3CCC(N)CC3)o1)C(C)(C)CCC2(C)C` (stereo not shown) [Compound 112], for which, at rat GnRH receptor, the pIC50 was 5.11.
With `Cc1cc2c(cc1Cc1ccc(C(=O)NCc3ccc(CN)cc3)o1)C(C)(C)CCC2(C)C` [Compound 113], the pIC50 at rat GnRH receptor was 6.52; on human GnRH receptor, 6.47.
As to `Cc1cc(NS(=O)(=O)c2ccc(NC(=O)c3ccc(Cc4cc5c(cc4C)C(C)(C)CCC5(C)C)o3)cc2)no1` [Compound 114], the pIC50 on rat GnRH receptor was 5.15.
For the compound `Cc1cc2c(cc1Cc1ccc(C(=O)NCc3cccc(CNC(=O)C(F)(F)F)c3)o1)C(C)(C)CCC2(C)C` [Compound 116], the pIC50 is 6.41 on rat GnRH receptor and 5.93 on human GnRH receptor.
Take `Cc1cc2c(cc1Cc1ccc(C(=O)NC3CCN(c4nccc(NCC5CCCO5)n4)C3)o1)C(C)(C)CCC2(C)C` (stereo not shown) [Compound 117]: the pIC50 on rat GnRH receptor was 5.52; on human GnRH receptor, 5.74.
As to `COC(=O)c1cc(OC)c(OC)c(OC)c1NC(=O)c1ccc(Cc2cc3c(cc2C)C(C)(C)CCC3(C)C)o1` [Compound 118], the results for the pIC50 at rat GnRH receptor and on human GnRH receptor were 6.37 and 6.42, respectively.
On to `Cc1cc2c(cc1Cc1ccc(C(=O)Nc3cncc(COC(=O)c4ccc(Cc5cc6c(cc5C)C(C)(C)CCC6(C)C)o4)c3)o1)C(C)(C)CCC2(C)C` [Compound 120], for which the pIC50 at rat GnRH receptor and on human GnRH receptor was less than 5.00 in each case.
Take `COCCCNC(=O)c1ccc(Cc2cc3c(cc2C)C(C)(C)CCC3(C)C)o1` [Compound 122]: the pIC50 at rat GnRH receptor was 5.90; at human GnRH receptor it was 6.14.
Regarding `Cc1cc2c(cc1Cc1ccc(C(=O)NC[C@@H](O)c3ccccc3)o1)C(C)(C)CCC2(C)C` [Compound 124], the pIC50 at rat GnRH receptor was 6.12.
As for `Cc1cc2c(cc1Cc1ccc(C(=O)NCC3CCCC(CN)C3)o1)C(C)(C)CCC2(C)C` (stereo not shown) [Compound 127], the pIC50 is 6.04 on rat GnRH receptor and 6.29 at human GnRH receptor.
`COc1ccc(CNC(=O)c2ccc(Cc3cc4c(cc3C)C(C)(C)CCC4(C)C)o2)c2ccccc12` [Compound 129]: the pIC50 on rat GnRH receptor is 5.86.
Regarding `Cc1cc2c(cc1Cc1ccc(C(=O)NCc3ccc(F)cc3)o1)C(C)(C)CCC2(C)C` [Compound 130], the pIC50 on rat GnRH receptor was 6.23; on human GnRH receptor it was 5.52.

For the origin of these results see patent US7101878B1 (Agouron Pharmaceuticals, Inc., priority 1998, dated 2006).
